Results reported in ChEMBL document CHEMBL3885861, “Open TG-GATES”.

Species: Rattus norvegicus
Assay: Open TG-GATES - Regimen: Single
Format: toxicity, organism-based, Sprague-Dawley
Set-up: regimen Single, gender Male, age 6 weeks
Settings: in vivo, po, 15 mg/kg, route gavage, dose level Low; for APTT / Bas / Eos / Fbg / Hb / Ht / Lym / MCH / MCHC / MCV / Mono / Neu / PT / Plat / RBC / Ret / WBC: tissue Blood; for KIDNEY_L / KIDNEY_R / KIDNEY_TOTAL: tissue Kidney; for LIVER: tissue Liver; for A/G / ALP / ALT / AST / BUN / CRE / Ca / Cl / DBIL / GLC / IP / K / LDH / Na / PL / RALB / TBIL / TC / TG / TP / gamma-GTP: tissue Plasma

Compound: CC(C)C(=O)Nc1ccc([N+](=O)[O-])c(C(F)(F)F)c1 [FLUTAMIDE]
- TERMINAL_BW (3 h): 209 g
- APTT (3 h): 19 s
- Bas (3 h): 0%
- Eos (3 h): 0.8%
- Fbg (3 h): 219.6 mg/dL
- Hb (3 h): 13.5 g/dL
- Ht (3 h): 39.7%
- Lym (3 h): 80%
- MCH (3 h): 22 pg
- MCHC (3 h): 33.9%
- MCV (3 h): 64.6 fL
- Mono (3 h): 3%
- Neu (3 h): 14.6%
- PT (3 h): 12.6 s
- Plat (3 h): 128.6 x10_4/uL
- RBC (3 h): 615.6 x10_4/ul
- Ret (3 h): 7.5%
- WBC (3 h): 110 x10_2/uL
- KIDNEY_L (3 h): 0.9 g
- KIDNEY_R (3 h): 0.9 g
- KIDNEY_TOTAL (3 h): 1.8 g
- LIVER (3 h): 9.3 g
- A/G (3 h): 1.7
- ALP (3 h): 1106 IU/L
- ALT (3 h): 39 IU/L
- AST (3 h): 69.6 IU/L
- BUN (3 h): 12 mg/dL
- CRE (3 h): 0.4 mg/dL
- Ca (3 h): 11 mg/dL
- Cl (3 h): 103 meq/L
- DBIL (3 h): 0.2 mg/dL
- GLC (3 h): 212.6 mg/dL
- IP (3 h): 9.8 mg/dL
- K (3 h): 3.7 meq/L
- LDH (3 h): 187.2 IU/L
- Na (3 h): 140.4 meq/L
- PL (3 h): 177.2 mg/dL
- RALB (3 h): 3.5 g/dL
- TBIL (3 h): 0.3 mg/dL
- TC (3 h): 87.8 mg/dL
- TG (3 h): 127 mg/dL
- TP (3 h): 5.6 g/dL
- gamma-GTP (3 h): 1.2 IU/L
- TERMINAL_BW (6 h): 207.2 g
- APTT (6 h): 19.3 s
- Bas (6 h): 0%
- Eos (6 h): 0.8%
- Fbg (6 h): 228.6 mg/dL
- Hb (6 h): 13.3 g/dL
- Ht (6 h): 39.1%
- Lym (6 h): 78.2%
- MCH (6 h): 21.8 pg
- MCHC (6 h): 34%
- MCV (6 h): 63.9 fL
- Mono (6 h): 3.6%
- Neu (6 h): 16.8%
- PT (6 h): 12.7 s
- Plat (6 h): 126.9 x10_4/uL
- RBC (6 h): 611.2 x10_4/ul
- Ret (6 h): 7.5%
- WBC (6 h): 103.4 x10_2/uL
- KIDNEY_L (6 h): 0.9 g
- KIDNEY_R (6 h): 0.9 g
- KIDNEY_TOTAL (6 h): 1.8 g
- LIVER (6 h): 9.3 g
- A/G (6 h): 1.7
- ALP (6 h): 1000.8 IU/L
- ALT (6 h): 37 IU/L
- AST (6 h): 69.6 IU/L
- BUN (6 h): 8.8 mg/dL
- CRE (6 h): 0.3 mg/dL
- Ca (6 h): 10.6 mg/dL
- Cl (6 h): 103.2 meq/L
- DBIL (6 h): 0.1 mg/dL
- GLC (6 h): 194.8 mg/dL
- IP (6 h): 9.7 mg/dL
- K (6 h): 4 meq/L
- LDH (6 h): 154 IU/L
- Na (6 h): 140 meq/L
- PL (6 h): 159.2 mg/dL
- RALB (6 h): 3.5 g/dL
- TBIL (6 h): 0.2 mg/dL
- TC (6 h): 88.2 mg/dL
- TG (6 h): 53.8 mg/dL
- TP (6 h): 5.6 g/dL
- gamma-GTP (6 h): 1.2 IU/L
- TERMINAL_BW (9 h): 204.9 g
- APTT (9 h): 18 s
- Bas (9 h): 0%
- Eos (9 h): 1%
- Fbg (9 h): 213.6 mg/dL
- Hb (9 h): 13.6 g/dL
- Ht (9 h): 39.8%
- Lym (9 h): 77.2%
- MCH (9 h): 21.8 pg
- MCHC (9 h): 34.2%
- MCV (9 h): 63.6 fL
- Mono (9 h): 3.6%
- Neu (9 h): 17.6%
- PT (9 h): 13 s
- Plat (9 h): 121.6 x10_4/uL
- RBC (9 h): 624.8 x10_4/ul
- Ret (9 h): 7.7%
- WBC (9 h): 91.2 x10_2/uL
- KIDNEY_L (9 h): 0.9 g
- KIDNEY_R (9 h): 0.9 g
- KIDNEY_TOTAL (9 h): 1.9 g
- LIVER (9 h): 8.4 g
- A/G (9 h): 1.6
- ALP (9 h): 967.8 IU/L
- ALT (9 h): 31.8 IU/L
- AST (9 h): 62.2 IU/L
- BUN (9 h): 10.6 mg/dL
- CRE (9 h): 0.3 mg/dL
- Ca (9 h): 10.3 mg/dL
- Cl (9 h): 103.8 meq/L
- DBIL (9 h): 0.082 mg/dL
- GLC (9 h): 207.8 mg/dL
- IP (9 h): 9.8 mg/dL
- K (9 h): 3.7 meq/L
- LDH (9 h): 182.2 IU/L
- Na (9 h): 141.8 meq/L
- PL (9 h): 131.4 mg/dL
- RALB (9 h): 3.4 g/dL
- TBIL (9 h): 0.1 mg/dL
- TC (9 h): 69.8 mg/dL
- TG (9 h): 45.4 mg/dL
- TP (9 h): 5.6 g/dL
- gamma-GTP (9 h): 0.8 IU/L
- TERMINAL_BW (24 h): 218.9 g
- APTT (24 h): 17.6 s
- Bas (24 h): 0%
- Eos (24 h): 1%
- Fbg (24 h): 212 mg/dL
- Hb (24 h): 13.6 g/dL
- Ht (24 h): 40.3%
- Lym (24 h): 78.6%
- MCH (24 h): 22 pg
- MCHC (24 h): 33.8%
- MCV (24 h): 64.9 fL
- Mono (24 h): 3.8%
- Neu (24 h): 16%
- PT (24 h): 12.5 s
- Plat (24 h): 125.4 x10_4/uL
- RBC (24 h): 621.2 x10_4/ul
- Ret (24 h): 6.6%
- WBC (24 h): 79.6 x10_2/uL
- KIDNEY_L (24 h): 0.9 g
- KIDNEY_R (24 h): 1 g
- KIDNEY_TOTAL (24 h): 1.9 g
- LIVER (24 h): 10.7 g
- A/G (24 h): 1.7
- ALP (24 h): 981 IU/L
- ALT (24 h): 39 IU/L
- AST (24 h): 72.2 IU/L
- BUN (24 h): 13.8 mg/dL
- CRE (24 h): 0.4 mg/dL
- Ca (24 h): 10.4 mg/dL
- Cl (24 h): 104.6 meq/L
- DBIL (24 h): 0.094 mg/dL
- GLC (24 h): 205.6 mg/dL
- IP (24 h): 7.1 mg/dL
- K (24 h): 3.8 meq/L
- LDH (24 h): 155.2 IU/L
- Na (24 h): 141.8 meq/L
- PL (24 h): 146 mg/dL
- RALB (24 h): 3.5 g/dL
- TBIL (24 h): 0.2 mg/dL
- TC (24 h): 81.2 mg/dL
- TG (24 h): 83.4 mg/dL
- TP (24 h): 5.5 g/dL
- gamma-GTP (24 h): 1 IU/L
